From ChEMBL document CHEMBL3407482, “Synthesis and assessment of the antioxidant and antitumor properties of asymmetric curcumin analogues” (Eur J Med Chem, 2015)
pIC50: −log10 of the molar value.

Tests used:
MCF7 [1] = test: Antiproliferative activity against human MCF7 cells after 72 hrs by MTT assay; assay type: functional, cell-based; conditions: MCF7, 72 h
[2] = Antioxidant activity assessed as ROO. radical scavenging activity by TRAP assay; assay type: physicochemical
[3] = Antioxidant activity assessed as ABTS radical scavenging activity by spectrophotometry; assay type: physicochemical
[4] = Antiproliferative activity against human PC3 cells after 72 hrs by MTT assay; assay type: functional, cell-based; conditions: PC-3, 72 h
[5] = Antioxidant activity assessed as superoxide radical scavenging activity after 5 mins by nitrotetrazolium blue chloride assay; assay type: physicochemical
[6] = Antioxidant activity assessed as DPPH radical scavenging activity by spectrophotometry; assay type: physicochemical
[7] = Antiproliferative activity against human SMMC7721 cells after 72 hrs by MTT assay; assay type: functional, cell-based; conditions: SMMC-7721, 72 h
[8] = Drug metabolism in rat plasma after 24 hrs by HPLC analysis; assay type: ADME, cell-free; conditions: read-out: Drug metabolism
SMMC-7721 = test: Ratio of curcumin IC50 to compound IC50 for human SMMC7721 cells after 72 hrs by MTT assay; assay type: functional
MCF7 [9] = test: Ratio of curcumin IC50 to compound IC50 for human MCF7 cells after 72 hrs by MTT assay; assay type: functional
PC-3 = test: Ratio of curcumin IC50 to compound IC50 for human PC3 cells after 72 hrs by MTT assay; assay type: functional
Plasma = test: Stability in rat plasma after 24 hrs by HPLC analysis; assay type: ADME, cell-free

Row | Structure (SMILES) | pIC50 (MCF7 [1]) | pIC50 [2] | pIC50 [3] | pIC50 [4] | pIC50 [5] | pIC50 [6] | pIC50 [7] | metabolised at 24 h [8] [%] | Ratio IC50 (SMMC-7721) | Ratio IC50 (MCF7 [9]) | Ratio IC50 (PC-3) | Stability (Plasma)
1 | CCOc1cc(/C=C/C(=O)/C=C/c2ccc(O)c(OCC)c2)ccc1O | 4.57 | 3.89 | 3.89 | 4.29 | 3.71 | 4.30 | 4.72 |  |  |  |  | 
2 | COc1ccc(/C=C/C(=O)/C=C/c2cc(OC)c(OC)c(OC)c2)cc1O | 4.39 | 3.93 | 4.00 | 4.46 | 3.78 | 4.46 | 4.94 |  |  |  |  | 
3 | COc1cc(/C=C/C(=O)/C=C/c2ccc(O)c(OC)c2)ccc1O | 4.65 | 4.35 | 4.52 | 4.44 | 4.14 | 5.03 | 4.74 | 11.9 | 1.6 | 1.6 | 1.6 | 
4 | O=C1O[C@H]([C@@H](O)CO)C(O)=C1O [ASCORBIC ACID] |  | 3.99 | 3.98 |  | 3.78 | 4.34 |  |  |  |  |  | 
5 | COc1ccc(/C=C/C(=O)/C=C/c2ccc(O)c(OC)c2)cc1O | 4.25 | 3.91 | 3.98 | 4.21 | 3.77 | 4.33 | 4.67 |  |  |  |  | 
6 | CCOc1cc(/C=C/C(=O)/C=C/c2ccc(O)c(OC)c2)ccc1O | 4.38 | 4.01 | 4.09 | 4.08 | 3.91 | 4.50 | 4.56 |  |  |  |  | Unstable
7 | COc1cc(/C=C/C(=O)/C=C/c2cc(OC)c(O)c(OC)c2)ccc1O | 4.54 | 4.02 | 4.07 | 4.15 | 3.91 | 4.54 | 4.82 |  |  |  |  | 
8 | COc1cc(/C=C/C(=O)CC(=O)/C=C/c2ccc(O)c(OC)c2)ccc1O [CURCUMIN] | 4.15 | 4.26 | 4.31 | 4.23 | 4.05 | 4.87 | 4.40 | 55.3 |  |  |  | 
9 | COc1ccc(O)c(/C=C/C(=O)/C=C/c2cc(OC)c(OC)c(OC)c2)c1 | 4.39 | 3.74 | 3.94 | 4.40 | 3.67 | 4.02 | 4.60 |  |  |  |  | 
10 | COc1cc(/C=C/C(=O)/C=C/c2ccc(C)c(C)c2)ccc1O | 4.66 | 3.87 | 3.99 |  | 3.75 | 4.38 | 4.63 |  |  |  |  | 
11 | COc1ccc(/C=C/C(=O)/C=C/c2ccc(OC)c(O)c2)cc1O | 4.15 | 3.71 | 3.75 | 4.01 | 3.69 | 4.04 | 5.01 |  |  |  |  | 
12 | COc1ccc(/C=C/C(=O)/C=C/c2cc(OC)c(O)c(OC)c2)cc1OC | 5.04 | 4.32 | 4.44 | 4.43 | 4.09 | 4.87 | 4.62 |  |  |  |  | 
13 | COc1cc(/C=C/C(=O)/C=C/c2cc(OC)c(OC)c(OC)c2)cc(OC)c1OC | 4.86 | < 2.32 | < 2.32 | 4.38 | < 2.32 | < 2.32 | 4.78 |  |  |  |  | Unstable
14 | COc1cc(/C=C/C(=O)/C=C/c2ccc(C)c(C)c2)cc(OC)c1O | 4.28 | 3.95 | 3.95 | 4.60 | 3.81 | 4.49 | 4.87 |  |  |  |  | 
15 | COc1ccc(/C=C/C(=O)/C=C/c2ccc(OC)c(OC)c2)cc1OC | 4.40 | < 2.25 | < 2.25 | 4.67 | < 2.25 | < 2.25 | 4.84 |  |  |  |  | 
16 | COc1ccc(O)c(/C=C/C(=O)/C=C/c2ccc(OC)c(OC)c2)c1 | 4.65 | 3.74 | 3.53 | 4.50 | 3.64 | 4.03 | 4.68 |  |  |  |  | Unstable
17 | COc1ccc(/C=C/C(=O)/C=C/c2ccc(OC)c(OC)c2)cc1O | 4.17 | 4.09 | 4.04 | 4.28 | 3.92 | 4.71 | 4.40 |  |  |  |  | 
18 | COc1cc(/C=C/C(=O)/C=C/c2cc(OC)c(OC)c(OC)c2)cc(OC)c1O | 4.36 | 4.15 | 4.12 | 4.63 | 3.93 | 4.55 | 4.96 |  |  |  |  | 
19 | COc1ccc(O)c(/C=C/C(=O)/C=C/c2ccc(C)c(C)c2)c1 | 4.48 | 3.54 | 3.88 | 4.34 | 3.68 | 3.69 | 4.63 |  |  |  |  | Unstable
